In article PMC6031733, “Adding a C-terminal Cysteine (CTC) Can Enhance the Bactericidal Activity of Three Different Antimicrobial Peptides” (Frontiers in Microbiology, 2018):
Like-named read-outs stand apart in the source and are kept apart here. Positions of bridges follow the written chain, without caps; N, C: chain ends. Non-standard residues stand in square brackets, D forms with d. Residues, ends and D or L forms follow the SMILES beside them. No end group written: not given here. *: point of attachment. X1 = CC[C@H](C)CCCCC(=O)*; Dab = NCC[C@H](N)C(=O)O

Tests used:
A. baumannii ATCC17978 [1] = details: A. baumannii ATCC17978 strain
Description: (§1) Peptides were diluted in the same buffer. […] All peptides were tested in triplicate. […] Peptides were also diluted in MH broth. […] All peptides were tested in duplicate.

[2] = test system: colistin-resistant A. baumannii TCGH 46709; test: Mouse lung infection model, survival; assay type: in vivo; details: C57BL/6JNarl mice, i.t. A. baumannii TCGH 46709 3.5 × 10^8 CFU/mouse, three consecutive days, 16 mice/group, 3 days
Description: (§2) We determined the in vivo protection efficacy of peptides in two different mouse infection models. In the mouse sepsis model ([Chen et al., 2016]), 3-week-old male ICR mice (∼20 g) were purchased from BioLASCO (Taiwan). These mice were inoculated intraperitoneally with S. aureus ATCC 19636 (4 × 10^6 CFU/mouse). At 2 h post-inoculation, the mice were randomly separated into 5 groups and received peptides (5 or 10 mg/kg) or the PBS control, respectively. Each group contained 5 mice. Mortality was monitored daily for 7 days following the bacterial inoculation. This experiment was repeated twice. In the mouse lung infection model ([Yang et al., 2016]), 6–8-week-old male C57BL/6JNarl mice (∼27 g) were purchased from National Laboratory Animal Center, Taiwan. The inoculums (3.5 × 10^8 CFU/mouse) were prepared by 1:1 mixing of LB culture and 10% mucin (Sigma). All mice were randomly separated into 3 groups and anesthetized by Isoflurane via inhalation, and inoculated intra-tracheally with colistin-resistant A. baumannii TCGH 46709. Two hours after inoculation, the mice were intraperitoneally injected daily with either colistin (5 mg/kg) ([Fishbain and Peleg, 2010]) or HBcARD derivative peptides (5 or 10 mg/kg), respectively, for three consecutive days. Each group contained 8 mice. Mortality was monitored every 12 h following the bacterial inoculation. This experiment was repeated twice.
C57BL/6JNarl mice (∼27 g) were anesthetized and intra-tracheally inoculated with A. baumannii (3.5 × 10^8 CFU/mouse). At 2 h post-inoculation, the mice received i.p. injection of either D-150-177C or colistin, respectively, for three consecutive days (1 injection per day).

S. aureus ATCC19636 = assay type: cell-based, Staphylococcus aureus; details: for MBC: pH 7.2
Description: as §1

P. aeruginosa ATCC9027 = assay type: cell-based, Pseudomonas aeruginosa
Description: as §1

A. baumannii ATCC17978 [3] = assay type: cell-based, Acinetobacter baumannii
Description: as §1

K. pneumoniae ATCC13884 = assay type: cell-based, Klebsiella pneumoniae
Description: as §1

ICR mice [4] = test: In vivo acute toxicity, survival
Description: (§3) To measure in vivo the acute toxicity, 3-week-old male ICR mice (∼20 g) were purchased from BioLASCO (Taiwan). The mice were randomly separated into 6 groups, and were intraperitoneally injected with D-150-177C at concentrations of 20, 40, 60, and 80 mg/kg. A last-line antibiotic, polymyxin B (20 and 50 mg/kg), was used as a control. Each group contained 5 mice. At 1 day post-injection, blood sample was collected from each mouse. The liver function of mice was determined by measuring the ALT level in the blood. The survival rates of injected mice were monitored for 7 days.
(§4) Polymyxins are the last-line antibiotics, but could be toxic at higher dose. We compared the acute toxicity of peptide D-150-177C with polymyxin B using ICR mice. The mice (∼20 g) were i.p. injected with D-150-177C peptide (20–80 mg/kg body weight). Polymyxin B (50 mg/kg body weight) was used as a control antibiotic. […] In contrast, all mice died of polymyxin B at 50 mg/kg.

S. aureus ATCC 19636 = test: Mouse sepsis model, survival; assay type: in vivo; details: ICR mice
Description: as §2
The mice (∼20 g) were i.p. (intraperitoneally) inoculated with S. aureus ATCC19636 (4 × 10^6 CFU/mouse), followed by treatments with peptides or the PBS control at 2 h post-inoculation. We monitored the survival rate for 7 days (Figure 2B). All mice treated with PBS (10/10) died at day 1 post-inoculation. […] In contrast, administration of L-150-177C peptide at the same dose protected 70% of mice (7/10) from death (p < 0.05). It appears that the C-terminal cysteine is very critical for the in vivo protection as well. Next, we compared the in vivo protection efficacy of HBcARD 150-177C peptides containing either D-form or L-form arginines in this same model. The protection efficacy of peptide L-150-177C was 30% (3/10) at 5 mg/kg, whereas D-150-177C can protect all mice (10/10) from death at the same dose (Figure 2B).

[5] = test system: colistin-sensitive A. baumannii ATCC17978; test: Mouse lung infection model, survival; assay type: in vivo; details: C57BL/6JNarl mice, i.t. colistin-sensitive A. baumannii ATCC17978; i.p. daily for three days; data not shown
ICR mice [6] = test: In vivo acute toxicity, serum ALT (liver injury)
Description: as §3, §4

S. aureus ATCC25923 = test: Minimum bactericidal concentration (MBC); assay type: cell-based, Staphylococcus aureus; details: phosphate buffer pH 7.2, 37°C, 3 h, zero colony, triplicate
Description: as §1

S. aureus ATCC29213 = test: Minimum bactericidal concentration (MBC); assay type: cell-based, Staphylococcus aureus; details: phosphate buffer pH 7.2, 37°C, 3 h, zero colony, triplicate
Description: as §1

P. aeruginosa ATCC27853 = test: Minimum bactericidal concentration (MBC); assay type: cell-based, Pseudomonas aeruginosa; details: phosphate buffer pH 7.2, 37°C, 3 h, zero colony, triplicate
Description: as §1

E. coli ATCC25922 = test: Minimum bactericidal concentration (MBC); assay type: cell-based, Escherichia coli; details: phosphate buffer pH 7.2, 37°C, 3 h, zero colony, triplicate
Description: as §1

A. baumannii ATCC19606 = test: Minimum bactericidal concentration (MBC); assay type: cell-based, Acinetobacter baumannii; details: phosphate buffer pH 7.2, 37°C, 3 h, zero colony, triplicate
Description: as §1

A. baumannii ATCC45530 = test: Minimum bactericidal concentration (MBC); assay type: cell-based, Acinetobacter baumannii; details: A. baumannii ATCC45530 (so in the source); phosphate buffer pH 7.2, 37°C, 3 h; zero colony; triplicate
Description: as §1

A. baumannii ATCC46709 = test: Minimum bactericidal concentration (MBC); assay type: cell-based, Acinetobacter baumannii; details: A. baumannii ATCC46709 (so in the source); phosphate buffer pH 7.2, 37°C, 3 h; zero colony; triplicate
Description: as §1

[7] = treated mice, all tissues; ref Chen et al., 2013; cited from earlier work
From the text: To reduce the cost for D-amino acids in peptide synthesis, we engineered peptides DL-150-177C and LD-150-177C, which contain only approximately 50 ...

[8] = S. aureus ATCC19636, 10^6 CFU/ml in 10 mM sodium phosphate, 50 mM NaCl, 37°C, 3 h, plated on MH agar, zero colony, triplicate
[9] = S. aureus ATCC19636 4 × 10^6 CFU/mouse i.p., peptide 5 mg/kg at 2 h post-inoculation, 7 days, n = 10/group (Figure 2B)
[10] = P. aeruginosa ATCC9027, phosphate buffer pH 7.2, 37°C, 3 h, zero colony, triplicate
[11] = A. baumannii ATCC17978, phosphate buffer pH 7.2, 37°C, 3 h, zero colony, triplicate

## CC[C@H](C)CCCCC(=O)N[C@@H](CCN)C(=O)N[C@H](C(=O)N[C@@H](CCN)C(=O)N[C@H]1CCNC(=O)[C@H]([C@@H](C)O)NC(=O)[C@H](CCN)NC(=O)[C@H](CCN)NC(=O)[C@H](CC(C)C)NC(=O)[C@@H](CC(C)C)NC(=O)[C@H](CCN)NC1=O)[C@@H](C)O [colistin, reference compound] (X1-[Dab]T[Dab][Dab][Dab][dL]L[Dab][Dab]T; lactam 4-C (inferred); N-terminus assumed)
A. baumannii ATCC17978 [1]
  MIC: around 4 mg/L
[2]; 5 mg/kg/day i.p. from 2 h
  survival rate (mice protected from death): 12.5%

## NAKDYKGAAAEFPKWNKAGGRVLAGLVKRRKC [LysinC]
S. aureus ATCC19636; ATCC19636, 3 h
  MBC: 128 mg/L
S. aureus ATCC19636; S. aureus
  decrease in MBC relative to parental peptide without C-terminal cysteine: > 8 fold
P. aeruginosa ATCC9027; ATCC9027, 3 h, pH 7.2
  MBC: 16 mg/L
P. aeruginosa ATCC9027; P. aeruginosa
  decrease in MBC relative to parental peptide without C-terminal cysteine: 4 fold
A. baumannii ATCC17978 [3]; A. baumannii
  decrease in MBC relative to parental peptide without C-terminal cysteine: 32 fold
A. baumannii ATCC17978 [3]; ATCC17978, 3 h, pH 7.2
  MBC: 32 mg/L
K. pneumoniae ATCC13884; ATCC13884, 3 h, pH 7.2
  MBC: 128 mg/L
K. pneumoniae ATCC13884; K. pneumonia
  decrease in MBC relative to parental peptide without C-terminal cysteine: > 8 fold

## RRRGRSPRRRTPSPRRRRSC [150-171C]
S. aureus ATCC19636; [8]
  MBC: > 57.2 mg/L

## RRRTPSPRRRRSQSPRRRRSC [157-177C]
S. aureus ATCC19636; [8]
  MBC: > 57.2 mg/L

## polymyxin B [reference compound]
ICR mice [4]; single i.p. 50 mg/kg, 7 days, 5 mice/group
  survival: all mice died

## C[C@@H](O)[C@H](NC(=O)[C@@H](CCCNC(=N)N)NC(=O)[C@@H](CCCNC(=N)N)NC(=O)[C@@H](CCCNC(=N)N)NC(=O)[C@@H]1CCCN1C(=O)[C@H](CO)NC(=O)[C@@H](CCCNC(=N)N)NC(=O)CNC(=O)[C@@H](CCCNC(=N)N)NC(=O)[C@@H](CCCNC(=N)N)NC(=O)[C@H](N)CCCNC(=N)N)C(=O)N1CCC[C@H]1C(=O)N[C@@H](CO)C(=O)N1CCC[C@H]1C(=O)N[C@H](CCCNC(=N)N)C(=O)N[C@H](CCCNC(=N)N)C(=O)N[C@H](CCCNC(=N)N)C(=O)N[C@H](CCCNC(=N)N)C(=O)N[C@@H](CO)C(=O)N[C@@H](CCC(N)=O)C(=O)N[C@@H](CO)C(=O)N1CCC[C@H]1C(=O)N[C@H](CCCNC(=N)N)C(=O)N[C@H](CCCNC(=N)N)C(=O)N[C@H](CCCNC(=N)N)C(=O)N[C@H](CCCNC(=N)N)C(=O)N[C@@H](CO)C(=O)N[C@@H](CS)C(=O)O [D-150-177C] (H-[dR][dR][dR]G[dR]SP[dR][dR][dR]TPSP[dR][dR][dR][dR]SQSP[dR][dR][dR][dR]SC-OH; N-terminus and C-terminus assumed)
S. aureus ATCC 19636; [9]
  survival rate: 100%
S. aureus ATCC 19636; S. aureus sepsis, peptide 5 mg/kg at 2 h post-inoculation, n = 10/group, D-arginine substitution comparison (Figure 4)
  survival rate: protected all mice from death
[2]; 5 mg/kg/day i.p. from 2 h
  survival rate (mice protected from death): 62.5%
[2]; 10 mg/kg/day i.p. from 2 h
  survival rate (mice protected from death): 87.5%
[5]
  survival rate: comparable to that of colistin treatment
ICR mice [4]; i.p., estimated from survival at 20-80 mg/kg
  LD50: ~75 mg/kg
ICR mice [4]; single i.p. 20 mg/kg, 7 days, 5 mice/group
  survival rate: 100%
ICR mice [4]; single i.p. 40 mg/kg, 7 days, 5 mice/group
  survival rate: 100%
ICR mice [4]; single i.p. 60 mg/kg, 7 days, 5 mice/group
  survival rate: 80%
ICR mice [4]; single i.p. 80 mg/kg, 7 days, 5 mice/group
  survival rate: 40%
ICR mice [6]; i.p. 20 mg/kg, serum at day 1
  ALT level compared with polymyxin B at 20 mg/kg: slight increase
ICR mice [6]; i.p. 40 mg/kg, serum at day 1
  ALT level compared with polymyxin B at 20 mg/kg: slight increase
ICR mice [6]; i.p. 60 mg/kg, serum at day 1, P < 0.01
  ALT level compared with polymyxin B at 20 mg/kg: significantly higher
ICR mice [6]; i.p. 60 mg/kg, serum at day 1 post-injection
  average ALT value: less than 100 IU/L

## TVVRRRGRSPRRRTPSPRRRRSQSPRRRRSQSRESQC [147-183]
S. aureus ATCC19636; [8]
  MBC: 18.3 mg/L
S. aureus ATCC25923
  MBC: 18.3 mg/L
S. aureus ATCC29213
  MBC: 18.3 mg/L
P. aeruginosa ATCC9027; [10]
  MBC: 9.2 mg/L
P. aeruginosa ATCC27853
  MBC: 9.2 mg/L
E. coli ATCC25922
  MBC: 18.3 mg/L
A. baumannii ATCC17978 [3]; [11]
  MBC: 2.3 mg/L
A. baumannii ATCC19606
  MBC: 2.3 mg/L
A. baumannii ATCC45530
  MBC: 2.3 mg/L
A. baumannii ATCC46709
  MBC: 4.6 mg/L
[7]
  reduction of bacterial burdens in spleen, liver, and blood: approximately 100 fold

## RRRRSQSPRRRRSC [164-177C]
S. aureus ATCC19636; [8]
  MBC: > 57.2 mg/L

## RRRGRSPRRRTPSPRRRRSQSPRRRRSC [150-177C]
S. aureus ATCC19636; [8]
  MBC: 7.1 mg/L
S. aureus ATCC25923
  MBC: 7.1 mg/L
S. aureus ATCC29213
  MBC: 7.1 mg/L
P. aeruginosa ATCC9027; [10]
  MBC: 7.1 mg/L
P. aeruginosa ATCC27853
  MBC: 7.1 mg/L
E. coli ATCC25922
  MBC: 7.1 mg/L
A. baumannii ATCC17978 [3]; [11]
  MBC: 1.8 mg/L
A. baumannii ATCC19606
  MBC: 0.9 mg/L
A. baumannii ATCC45530
  MBC: 1.8 mg/L
A. baumannii ATCC46709
  MBC: 3.6 mg/L
S. aureus ATCC 19636; [9]
  survival rate: 30%
S. aureus ATCC 19636; S. aureus ATCC19636 4 × 10^6 CFU/mouse i.p., peptide 10 mg/kg at 2 h post-inoculation, 7 days, n = 10/group (Figure 2B)
  survival rate: 70%
